Laboratory results published in patent US20220249540A1, “INHALABLE COMPOSITION COMPROMISING CYCLODEXTRIN FOR USE IN THE TREATMENT OF NASAL INFLAMMATIONS” (AQUILON PHARMACEUTICALS SA, priority 2019, published 2022).

Experiments:
[1] = tested on: goblet cells in nasal mucosa tissue; assay: goblet cells in nasal mucosa tissue of Ovalbumin-sensitized mice (PAS staining); type: in vivo, BALB/c mice; settings: 50 mM in PBS by aerosolization 360 min before each OVA inhalation, Day 22 to 98; control group 50%
Protocol: Eight male and female BALB/c mice (6-8 weeks of age at the beginning of the protocol) were sensitized with Ovalbulmin (OVA) on D1 and D11 by intraperitoneal (i.p.) injection (10 μg grade V OVA diluted in 200 μl PBS), followed by OVA aerosols (10% grade Ill OVA dissolved in PBS buffer −50 ml were aerosolized with ultrasonic nebulizer during 30 minutes in a 30×20×15 cm Plexiglas exposure box where the animals were authorized to breathe and move normally). Aerosol administration was performed 360 min after i.n. treatments with Placebo or hydroxypropyl-gamma-cyclodextrin (HP-gamma-CD) during even weeks from days 22 to 98 (5 days/even week).
Mice were treated from Day 22 to Day 98 (5 days per week even week) with PBS (8 mice in control group) or with hydroxypropyl-gamma-cyclodextrin 50 mM diluted in PBS (8 mice in treated group) by aeorosolization (50 ml were aerosolized during 30 minutes in a Plexiglas exposure box where the animals were authorized to breathe and move normally) 360 min before each OVA inhalation.
On Day 99, the animals were sacrificed. […]
Numbers of goblet cells were counted using digitalized images of histological slides. Three hundred epithelial cells were counted at random and the percentage of positive cells for PAS staining (Goblet cells) was established relative to cells negative for PAS staining.

Wistar rats = assay: two-week Dose-Range-Finding (DRF) Inhalation Study, histopathology of the nasal cavities; type: in vivo; settings: for Normal (number of animals with normal nasal cavity histopathology): 3 examined
Protocol: Hydroxypropylbetacyclodextrin (HPBCD) was administered during two-weeks in a Dose-Range-Finding (DRF) Inhalation Study to Wistar rats in three different delivered doses: • low of 20 mg/kg/day and a target atmosphere concentration of 0.3 mg/L, • medium of 60 mg/kg/day and a target atmosphere concentration of 0.9 mg/L, and • […] to each three male and three non-pregnant female rats.
A control group which received control vehicle in the form of citrate buffer was provided with three male and three non-pregnant female rats. After terminal euthanasia, the nasal cavity was removed. Nasal cavities were embedded in paraffin wax, sections were cut at 4-6 μm by microtome and transferred to slides. Tissue sections were stained with haematoxylin-eosin/phloxine and examined by light microscope. Full histopathology of the nasal cavities, as well as the other organs of the respiratory tract, was performed in each group and is shown in FIG. 1. 4 levels of the nasal cavities were examined, among which 1 level included the nasopharyngeal duct and Nasal Associated Lymphoid Tissue (NALT).
Nasal cavities analyzed by histopathology were normal at all exposure levels of HPBCD.

Row | Molecule | % of goblet cells in nasal mucosa tissue [1] [%] | Normal (number of animals with normal nasal cavity histopathology) (Wistar rats; Female, High dosage (180 mg/kg/day)) | Normal (number of animals with normal nasal cavity histopathology) (Wistar rats; Female, Low dosage (20 mg/kg/day)) | Normal (number of animals with normal nasal cavity histopathology) (Wistar rats; Female, Mid dosage (60 mg/kg/day)) | Normal (number of animals with normal nasal cavity histopathology) (Wistar rats; Male, High dosage (180 mg/kg/day)) | Normal (number of animals with normal nasal cavity histopathology) (Wistar rats; Male, Low dosage (20 mg/kg/day)) | Normal (number of animals with normal nasal cavity histopathology) (Wistar rats; Male, Mid dosage (60 mg/kg/day)) | Nasal cavities analyzed by histopathology (Wistar rats; all exposure levels (20, 60, 180 mg/kg/day), nose-only inhalation, 90 min/day, 14 days)
1 | 2-hydroxypropyl-γ-cyclodextrin [Hydroxypropyl-gamma-cyclodextrin] | 20 | – | – | – | – | – | – | –
2 | CC(O)COC[C@H]1O[C@@H]2O[C@H]3[C@H](O)[C@@H](O)[C@@H](O[C@H]4[C@H](O)[C@@H](O)[C@@H](O[C@H]5[C@H](O)[C@@H](O)[C@@H](O[C@H]6[C@H](O)[C@@H](O)[C@@H](O[C@H]7[C@H](O)[C@@H](O)[C@@H](O[C@H]8[C@H](O)[C@@H](O)[C@@H](O[C@H]1[C@H](O)[C@H]2O)O[C@@H]8COCC(C)O)O[C@@H]7COCC(C)O)O[C@@H]6COCC(C)O)O[C@@H]5COCC(C)O)O[C@@H]4COCC(C)O)O[C@@H]3COCC(C)O (stereo partly drawn) [HPBCD, 2-hydroxypropyl-beta-cyclodextrin] | – | 3 | 3 | 3 | 3 | 3 | 3 | normal
